Legend:
[1] = tested on: Candida duobushaemulonii; assay: Planktonic growth, broth microdilution (CLSI M27-A3), MIC; format: cell-based; settings: for GM-MIC: geometric mean of three C. duobushaemulonii isolates; for MIC: planktonic, 48 h, 37°C
From the text: (§1) Three clinical isolates of each species that form the C. haemulonii complex were used in this study: C. haemulonii (LIPCh4 from finger nail, LIPCh7 from toe nail, and LIPCh12 from blood), C. duobushaemulonii (LIPCh1 from finger nail, LIPCh6 from toe nail, and LIPCh8 from blood) and C. haemulonii var. vulnera (LIPCh5 from toe nail, LIPCh9 from urine, and LIPCh11 from blood) (Ramos et al., [2015]). The fungal isolates were identified by the automatized system VITEK® 2 and then characterized by ITS1-5.8S-ITS2 gene sequencing (Ramos et al., [2015]). Fungal cells were cultured in Sabouraud-dextrose medium under constant agitation (130 rpm) for 48 h at 37°C. Human lung adenocarcinoma A549 cells were maintained in culture flasks containing DMEM medium supplemented with 10% fetal bovine serum at 37°C in an atmosphere of 5% CO2.
(§2) Susceptibility profile assays were performed in accordance with the broth microdilution protocol described in the document M27-A3 published by the Clinical and Laboratory Standards Institutes (CLSI, [2008]). Samples of the test chelates were dissolved in DMSO (500 μL) and then serially diluted in a 96-well plate containing RPMI 1640 (Sigma-Aldrich, USA) to give the concentration range of 0.0625-32 mg/L. Aqueous solutions of the metal-free phen ligand and the simple metal salts, MnCl2, CuCl2, and AgNO3, were also screened over the same concentration range. Caspofungin (Sigma-Aldrich) was used as a classical antifungal agent able to block the growth of all clinical isolates of C. haemulonii species as previously reported by our research group (Ramos et al., [2015]). Water dilutions containing DMSO concentrations corresponding to those used to prepare the drug solutions were assessed in parallel. Untreated and compound-treated fungal cells were incubated at 37°C for 48 h and the minimal inhibitory concentration (MIC) was established as the lowest compound concentration where no cellular growth could be detected by visual inspection in accordance to the CLSI recommendation. The geometric mean of the MIC values (GM-MIC) of each compound against all the fungal isolates was calculated using the software, Microsoft Office Excel 2013.

[2] = tested on: Candida haemulonii var. vulnera; assay: as above; format: cell-based; settings: for GM-MIC: geometric mean of three C. haemulonii var. vulnera isolates; for MIC: planktonic, 48 h, 37°C
From the text: as §1, §2

[3] = tested on: Candida haemulonii; assay: as above; format: cell-based; settings: for GM-MIC: geometric mean of three C. haemulonii isolates; for MIC: planktonic, 48 h, 37°C
From the text: as §1, §2

[4] = tested on: C. haemulonii complex; assay: Planktonic growth, overall across all nine isolates; format: cell-based, Candida haemulonii complex; settings: geometric mean across all nine strains; for MIC: in μM, read-out: Overall GM-MIC
From the text: as §1, §2

[5] = tested on: A549 cells; assay: Mammalian cell toxicity (MTT assay) and selectivity index; format: cell-based, Human; settings: MTT, 48 h incubation
From the text: as §1
The cytotoxicity was evaluated using the MTT [3-(4,5-dimethylthiazol-2-yl)-2,5-diphenyl tetrazolium bromide] (Sigma-Aldrich) assay (Mosmann, [1983]). A549 cells (10^4) were seeded into tissue culture plates (TPP, Switzerland) and cultured for 24 h at 37°C in a 5% CO2 in order to obtain cellular confluence. The wells were then washed twice with DMEM to remove non-adherent cells and the test compounds were added (in concentrations ranging from 0.0313 to 512 μg/mL) to plates containing DMEM, followed by a 48 h incubation period under the same conditions mentioned above. The cellular viability was evaluated by adding MTT to each well and incubating the plates in the dark for 3 h, allowing the viable cells containing active mitochondrial dehydrogenase enzymes to metabolize MTT-tetrazolium salt into purple formazan. The formazan crystals were then dissolved in DMSO (100 μL) and the absorbance (450 nm) measured using a Thermomax Molecular Device microplate reader. The concentration capable of reducing cellular viability by 50% (CC50) was calculated, and the selectivity index (SI) determined using the following equation: A549 CC50/C. haemulonii complex GM-MIC.

[6] = tested on: Candida duobushaemulonii; assay: Biofilm-growing cells, XTT assay, bMIC; format: cell-based; settings: for GM-bMIC: geometric mean, C. duobushaemulonii isolates; for bMIC: mature biofilm, 48 h, 50% inhibition of metabolic activity
Description: (§3) The effect of the compounds on biofilm-growing cells was determined using the previously described microtiter-based technique (Ramage et al., [2001]). The fungi (10^6 yeast cells) were incubated for 48 h at 37°C in 96-well polystyrene microtiter plates (Corning®, Corning Incorporated, USA) containing Sabouraud-dextrose broth to accommodate biofilm formation. Following biofilm formation, the culture medium was aspirated and non-adherent cells removed by thoroughly washing the wells three times with sterile PBS (0.15 M NaCl, 0.01 M phosphate buffer, pH 7.2). Afterwards, the compounds, at the same concentrations used in the planktonic assays, were added to the wells, and the plates were incubated for further 48 h at 37°C. The metabolic activity was then evaluated using a colorimetric assay that measures the metabolic reduction of 2,3-bis (2-methoxy-4-nitro-5-sulfophenyl)-5-[(phenylamino) carbonyl]-2H-tetrazolium hydroxide (XTT; Sigma-Aldrich) to a water-soluble, brown formazan product (Peeters et al., [2008]). The biofilm MIC (bMIC) for each compound was established as the minimal concentration capable of inhibiting 50% of metabolic activity when compared to compound-free wells (Ziccardi et al., [2015]).

[7] = tested on: Candida haemulonii var. vulnera; assay: Biofilm-growing cells, XTT assay, bMIC; format: cell-based; settings: for GM-bMIC: geometric mean, C. haemulonii var. vulnera isolates; for bMIC: mature biofilm, 48 h, 50% inhibition of metabolic activity
Description: as §3

[8] = tested on: Candida haemulonii; assay: Biofilm-growing cells, XTT assay, bMIC; format: cell-based; settings: for GM-bMIC: geometric mean, C. haemulonii isolates, values marked * do not include LIP Ch4 (>512); for bMIC: mature biofilm, 48 h, 50% inhibition of metabolic activity
Description: as §3

[9] = tested on: Candida haemulonii complex; assay: Biofilm-growing cells, overall across isolates; format: cell-based; settings: for Overall GM-bMIC: geometric mean across strains, values marked * do not include LIP Ch4 (>512)
Description: as §3

| SMILES | GM-MIC [1] [µg/mL] | MIC ([1]; isolate LIP Ch1) [µg/mL] | MIC ([1]; isolate LIP Ch6) [µg/mL] | MIC ([1]; isolate LIP Ch8) [µg/mL] | GM-MIC [2] [µg/mL] | MIC ([2]; isolate LIP Ch5) [µg/mL] | MIC ([2]; isolate LIP Ch9) [µg/mL] | MIC ([2]; isolate LIP Ch11) [µg/mL] | GM-MIC [3] [µg/mL] | MIC ([3]; isolate LIP Ch4) [µg/mL] | MIC ([3]; isolate LIP Ch7) [µg/mL] | MIC ([3]; isolate LIP Ch12) [µg/mL] | Overall GM-MIC [4] [µg/mL] | MIC [4] [µM] | A549 (CC50) [5] [µg/mL] | GM-bMIC [6] [mg/L] | bMIC ([6]; isolate LIP Ch1) [mg/L] | bMIC ([6]; isolate LIP Ch6) [mg/L] | bMIC ([6]; isolate LIP Ch8) [mg/L] | GM-bMIC [7] [mg/L] | other results |
| --- | --- | --- | --- | --- | --- | --- | --- | --- | --- | --- | --- | --- | --- | --- | --- | --- | --- | --- | --- | --- | --- |
| O.O.O.O.O=C([O-])c1cccc(C(=O)[O-])c1.O=C([O-])c1cccc(C(=O)[O-])c1.[Mn+2].[Mn+2].c1cnc2c(c1)ccc1cccnc12.c1cnc2c(c1)ccc1cccnc12.c1cnc2c(c1)ccc1cccnc12 [compound 10, [Mn2(isoph)2(phen)3].4H2O] | 6.35 | 8 | 8 | 4 | 4 | 4 | 4 | 4 | 6.35 | 8 | 8 | 4 | 5.44 | 5.15 | 255.87 | 16 | 16 | 16 | 16 | 12.70 | bMIC ([7]; isolate LIP Ch5): 32 mg/L; bMIC ([7]; isolate LIP Ch9): 8 mg/L; bMIC ([7]; isolate LIP Ch13): 8 mg/L; GM-bMIC [8]: 16^* mg/L; bMIC ([8]; isolate LIP Ch4): >512 mg/L; bMIC ([8]; isolate LIP Ch7): 8 mg/L; bMIC ([8]; isolate LIP Ch14): 32 mg/L; Overall GM-bMIC ([9]; in μM): 13.96 µM; Overall GM-bMIC [9]: 14.67 mg/L |
| O=C1C(=O)c2cccnc2-c2ncccc21.O=C1C(=O)c2cccnc2-c2ncccc21.[Ag+].[O-][Cl+3]([O-])([O-])[O-] [compound 15, [Ag(phendione)2]ClO4] | 2 | 2 | 2 | 2 | 1.26 | 2 | 1 | 1 | 1 | 1 | 1 | 1 | 1.36 | 2.16 | 3.76 | 10.08 | 8 | 32 | 4 | 32 | bMIC ([7]; isolate LIP Ch5): 32 mg/L; bMIC ([7]; isolate LIP Ch9): 32 mg/L; bMIC ([7]; isolate LIP Ch13): 32 mg/L; GM-bMIC [8]: 11.31^* mg/L; bMIC ([8]; isolate LIP Ch4): >512 mg/L; bMIC ([8]; isolate LIP Ch7): 8 mg/L; bMIC ([8]; isolate LIP Ch14): 16 mg/L; decrease in activity on going from planktonic to biofilm cells ([9]; biofilm MIC versus planktonic MIC): 11.8 fold; Overall GM-bMIC ([9]; in μM): 25.48 µM; Overall GM-bMIC [9]: 16 mg/L |
| CCO.O=C([O-])CCCCCCC(=O)[O-].[Cu+2].[Cu+2].[O-][Cl+3]([O-])([O-])[O-].[O-][Cl+3]([O-])([O-])[O-].c1cnc2c(c1)ccc1cccnc12.c1cnc2c(c1)ccc1cccnc12.c1cnc2c(c1)ccc1cccnc12.c1cnc2c(c1)ccc1cccnc12 [compound 5, [Cu2(oda)(phen)4](ClO4)2.2.76H2O.EtOH] | 8 | 8 | 8 | 8 | 10.08 | 8 | 16 | 8 | 10.08 | 8 | 8 | 16 | 9.33 | 7.09 | 0.98 | 16 | 32 | 8 | 16 | 16 | bMIC ([7]; isolate LIP Ch5): 32 mg/L; bMIC ([7]; isolate LIP Ch9): 8 mg/L; bMIC ([7]; isolate LIP Ch13): 16 mg/L; GM-bMIC [8]: 20.16 mg/L; bMIC ([8]; isolate LIP Ch4): 32 mg/L; bMIC ([8]; isolate LIP Ch7): 16 mg/L; bMIC ([8]; isolate LIP Ch14): 16 mg/L; Overall GM-bMIC ([9]; in μM): 13.19 µM; Overall GM-bMIC [9]: 17.28 mg/L |
| O.O.O.O.O.O.O.O.O.O.O.O.O.O.O.O.O=C([O-])c1cccc(C(=O)[O-])c1.O=C([O-])c1cccc(C(=O)[O-])c1.[Mn+2].[Mn+2].c1cnc2c(c1)ccc1cccnc12.c1cnc2c(c1)ccc1cccnc12.c1cnc2c(c1)ccc1cccnc12.c1cnc2c(c1)ccc1cccnc12.c1cnc2c(c1)ccc1cccnc12 [compound 11, {[Mn(phen)2(H2O)2]}2(isoph)2(phen).12H2O] | 2.52 | 2 | 4 | 2 | 2.52 | 4 | 2 | 2 | 2.52 | 4 | 2 | 2 | 2.52 | 1.54 | 251.76 | 6.35 | 8 | 8 | 4 | 8 | bMIC ([7]; isolate LIP Ch5): 16 mg/L; bMIC ([7]; isolate LIP Ch9): 4 mg/L; bMIC ([7]; isolate LIP Ch13): 8 mg/L; GM-bMIC [8]: 16^* mg/L; bMIC ([8]; isolate LIP Ch4): >512 mg/L; bMIC ([8]; isolate LIP Ch7): 8 mg/L; bMIC ([8]; isolate LIP Ch14): 32 mg/L; Overall GM-bMIC [9]: 8.72 mg/L |
